Entries after “also recorded” stand apart in the source; their conditions may differ.
Columns and labels:
Format in all cases: biochemical
[1] = molecular target: Streptococcus pneumoniae aspartate semialdehyde dehydrogenase (spASADH) (Streptococcus pneumoniae, UniProt Q8DQ00); test: biochemical; settings: for inhibition / binding affinity for spASADH (in words): relative to parent or neighbouring derivative
[2] = molecular target: T1, Vibrio cholerae aspartate semialdehyde dehydrogenase (vcASADH) (Vibrio cholerae serotype O1, UniProt P23247); test: biochemical; settings: for inhibition / binding affinity for vcASADH (in words): relative to parent or neighbouring derivative
T1 construct: made in house

[3] = molecular target: T2, Streptococcus pneumoniae aspartate semialdehyde dehydrogenase (spASADH) (Streptococcus pneumoniae, UniProt Q8DQ00); test: spASADH kinetic assay: reverse direction, NADPH absorbance at 340 nm; Ki from Dixon plot assuming competitive inhibition against ASA; settings: pH 8.6, r.t., 0.15 mM ASA, 1.5 mM NADP, 20 mM phosphate
T2 construct: homodimer from general knowledge
T2 sequence (Q8DQ00 1-358): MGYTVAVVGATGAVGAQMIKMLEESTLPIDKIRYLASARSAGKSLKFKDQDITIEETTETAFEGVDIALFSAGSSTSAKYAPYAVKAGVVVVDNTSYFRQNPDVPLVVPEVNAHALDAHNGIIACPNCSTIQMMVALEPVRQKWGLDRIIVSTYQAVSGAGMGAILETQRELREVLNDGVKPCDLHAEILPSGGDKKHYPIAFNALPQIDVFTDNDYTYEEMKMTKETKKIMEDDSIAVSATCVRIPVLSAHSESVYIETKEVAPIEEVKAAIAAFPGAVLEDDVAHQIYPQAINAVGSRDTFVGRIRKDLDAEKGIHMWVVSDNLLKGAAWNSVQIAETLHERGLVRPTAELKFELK

[4] = molecular target: Vibrio cholerae aspartate semialdehyde dehydrogenase (vcASADH); test: vcASADH kinetic assay: reverse direction, NADPH absorbance at 340 nm; Ki from Dixon plot assuming competitive inhibition against ASA; settings: pH 8.6, r.t., 0.3 mM ASA, 1.5 mM NADP, 20 mM phosphate
[5] = competitive vs ASA, 0.15 mM ASA, pH 8.6, read-out: Ki for spASADH

T1 sequence (P23247 whole entry): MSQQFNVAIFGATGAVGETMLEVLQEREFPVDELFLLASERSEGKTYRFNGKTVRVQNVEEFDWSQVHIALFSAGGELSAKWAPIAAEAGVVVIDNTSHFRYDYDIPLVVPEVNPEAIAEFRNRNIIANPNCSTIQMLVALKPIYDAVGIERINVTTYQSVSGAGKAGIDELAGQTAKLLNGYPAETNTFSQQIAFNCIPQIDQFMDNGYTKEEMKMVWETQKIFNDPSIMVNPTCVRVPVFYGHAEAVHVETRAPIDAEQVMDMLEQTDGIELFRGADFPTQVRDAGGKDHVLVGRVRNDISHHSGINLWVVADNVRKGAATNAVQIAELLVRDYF

Compound: O=C(O)CNCc1ccc(C(=O)O)c(C(=O)O)c1 [Compound 3, N-carboxymethyl-3,4-dicarboxybenzylamine]
- inhibition / binding affinity for spASADH (in words) [1]: two-fold stronger inhibitor; also recorded: high millimolar inhibitor
- Ki [2]: 500 µM
- inhibition / binding affinity for vcASADH (in words) [2]: high millimolar inhibitor
- Ki ([3]; FIG. 4, Table 1): 246 ± 20 µM

Compound: O=C(O)CCNCc1ccc(C(=O)O)c(C(=O)O)c1 [Compound 4, N-carboxyethyl-3,4-dicarboxybenzylamine]
- Ki [1, 5]: 2400 µM
- inhibition / binding affinity for spASADH (in words) [1]: substantial affinity loss
- inhibition / binding affinity for vcASADH (in words) [2]: did not show appreciable inhibition

Compound: C[C@H](NCc1ccc(C(=O)O)c(C(=O)O)c1)C(=O)O [Compound 5, N-((2-methyl)carboxymethyl)-3,4-dicarboxybenzylamine]
- Ki ([4]; FIG. 4, Table 1): 609 ± 23 µM
- inhibition / binding affinity for spASADH (in words) [1]: no appreciable effect on the binding affinity; also recorded: did not lead to enhanced affinity
- inhibition / binding affinity for vcASADH (in words) [2]: no appreciable effect on the binding affinity
- Ki ([3]; FIG. 4, Table 1): 296 ± 26 µM

Compound: O=C(O)c1ccc(CN[C@@H](CO)C(=O)O)cc1C(=O)O [Compound 6, N-((2-hydroxymethyl)carboxymethyl)-3,4-dicarboxybenzylamine]
- Ki ([4]; FIG. 4, Table 1): 654 ± 22 µM
- inhibition / binding affinity for spASADH (in words) [1]: no appreciable effect on the binding affinity; also recorded: did not lead to enhanced affinity
- inhibition / binding affinity for vcASADH (in words) [2]: no appreciable effect on the binding affinity
- Ki ([3]; FIG. 4, Table 1): 324 ± 24 µM

Compound: CN(CC(=O)O)Cc1cccc(C(=O)O)c1C(=O)O [Compound 9, N-methyl, N-carboxymethyl-2,3-dicarboxybenzylamine]
- Ki [1, 5]: 1800 µM
- inhibition / binding affinity for vcASADH (in words) [2]: no inhibition

Compound: CN(CC(=O)O)Cc1ccc(C(=O)O)c(C(=O)O)c1 [Compound 10, N-methyl, N-carboxymethyl-3,4-dicarboxybenzylamine]
- Ki ([4]; FIG. 4, Table 1): 675 ± 54 µM
- Ki ([3]; FIG. 4, Table 1): 296 ± 36 µM

Compound: C=CCN(CC(=O)O)Cc1ccc(C(=O)O)c(C(=O)O)c1 [Compound 11, N-allyl, N-carboxymethyl-3,4-dicarboxybenzylamine]
- Ki ([4]; FIG. 4, Table 1): 663 ± 36 µM
- Ki ([3]; FIG. 4, Table 1): 303 ± 22 µM

Compound: O=C(O)CN(Cc1ccccc1)Cc1ccc(C(=O)O)c(C(=O)O)c1 [Compound 13, N-benzyl, N-carboxymethyl-3,4-dicarboxybenzylamine]
- Ki ([4]; FIG. 4, Table 1): 696 ± 33 µM
- Ki ([3]; FIG. 4, Table 1): 297 ± 14 µM

Compound: O=C(O)CN(Cc1ccc(C(=O)O)c(C(=O)O)c1)Cc1cccc2ccccc12 [Compound 14]
- inhibition / binding affinity for spASADH (in words) [1]: slightly worse inhibition

Compound: O=C(O)CN(Cc1ccc(C(=O)O)c(C(=O)O)c1)c1ccc2ccccc2c1 [Compound 15, N-(2-naphthyl)-N-carboxymethyl-3,4-dicarboxybenzylamine]
- Ki ([4]; FIG. 4, Table 1): 724 ± 47 µM
- inhibition / binding affinity for spASADH (in words) [1]: slightly worse inhibition
- Ki ([3]; FIG. 4, Table 1): 329 ± 22 µM

Compound: O=C(O)CN(CCN1CCOCC1)Cc1ccc(C(=O)O)c(C(=O)O)c1 [Compound 16, N-(ethylmorpholino)-N-carboxymethyl-3,4-dicarboxybenzylamine]
- inhibition / binding affinity for spASADH (in words) [1]: only a slight improvement

Compound: O=C(O)CN(Cc1ccc(C(=O)O)c(C(=O)O)c1)c1ccc(-c2ccccc2)cc1 [Compound 17, N-(4-biphenyl)-N-carboxymethyl-3,4-dicarboxybenzylamine]
- Ki ([4]; FIG. 4, Table 1): 634 ± 29 µM
- improved inhibition of spASADH relative to the parent benzyl derivative ([1]; relative to parent benzyl derivative): 25 fold
- inhibition / binding affinity for spASADH (in words) [1]: improved binding affinity

Compound: O=C(O)CN(Cc1ccc(C(=O)O)c(C(=O)O)c1)Cc1ccccc1Br [Compound 18, N-(2-bromobenzyl)-N-carboxymethyl-3,4-dicarboxybenzylamine]
- Ki ([4]; FIG. 5, Table 2): 737 ± 49 µM
- inhibition / binding affinity for spASADH (in words) [1]: did not yield any improvement in affinity
- Ki ([3]; FIG. 5, Table 2): 529 ± 38 µM

Compound: O=C(O)CN(Cc1cccc(Br)c1)Cc1ccc(C(=O)O)c(C(=O)O)c1 [Compound 19, N-(3-bromobenzyl)-N-carboxymethyl-3,4-dicarboxybenzylamine]
- Ki ([4]; FIG. 5, Table 2): 665 ± 37 µM
- inhibition / binding affinity for spASADH (in words) [1]: did not yield any improvement in affinity
- Ki ([3]; FIG. 5, Table 2): 442 ± 29 µM

Compound: Cc1ccccc1CN(CC(=O)O)Cc1ccc(C(=O)O)c(C(=O)O)c1 [Compound 21, N-(2-methylbenzyl)-N-carboxymethyl-3,4-dicarboxybenzylamine]
- Ki ([4]; FIG. 5, Table 2): 721 ± 46 µM
- inhibition / binding affinity for spASADH (in words) [1]: did not yield any improvement in affinity
- Ki ([3]; FIG. 5, Table 2): 524 ± 27 µM

Compound: Cc1cccc(CN(CC(=O)O)Cc2ccc(C(=O)O)c(C(=O)O)c2)c1 [Compound 22, N-(3-methylbenzyl)-N-carboxymethyl-3,4-dicarboxybenzylamine]
- Ki ([4]; FIG. 5, Table 2): 690 ± 41 µM
- inhibition / binding affinity for spASADH (in words) [1]: did not yield any improvement in affinity
- Ki ([3]; FIG. 5, Table 2): 430 ± 22 µM

Compound: Cc1ccc(CN(CC(=O)O)Cc2ccc(C(=O)O)c(C(=O)O)c2)cc1 [Compound 23, N-(4-methylbenzyl)-N-carboxymethyl-3,4-dicarboxybenzylamine]
- Ki ([4]; FIG. 5, Table 2): 608 ± 42 µM
- inhibition / binding affinity for vcASADH (in words) [2]: did not show any improved affinity
- Ki ([3]; FIG. 5, Table 2): 63 ± 7 µM

Compound: O=C(O)CN(Cc1ccc(C(F)(F)F)cc1)Cc1ccc(C(=O)O)c(C(=O)O)c1 [Compound 26, N-(4-trifluoromethylbenzyl)-N-carboxymethyl-3,4-dicarboxybenzylamine]
- Ki ([4]; FIG. 5, Table 2): 628 ± 48 µM
- inhibition / binding affinity for spASADH (in words) [1]: two-fold additional improvement in binding affinity

Compound: O=C(O)CN(Cc1ccc(OC(F)(F)F)cc1)Cc1ccc(C(=O)O)c(C(=O)O)c1 [Compound 29, N-(4-trifluoromethoxybenzyl)-N-carboxymethyl-3,4-dicarboxybenzylamine]
- Ki ([4]; FIG. 5, Table 2): 663 ± 39 µM
- inhibition / binding affinity for spASADH (in words) [1]: two-fold additional improvement in binding affinity
- Ki ([3]; FIG. 5, Table 2): 36 ± 6 µM

Compound: O=C(O)CN(Cc1ccc(OC(F)F)cc1)Cc1ccc(C(=O)O)c(C(=O)O)c1 [Compound 30, N-(4-difluoromethoxybenzyl)-N-carboxymethyl-3,4-dicarboxybenzylamine]
- Ki ([4]; FIG. 5, Table 2): 698 ± 44 µM
- inhibition / binding affinity for spASADH (in words) [1]: reversed this improvement
- Ki ([3]; FIG. 5, Table 2): 54 ± 5 µM

Compound: O=C(O)CN(Cc1ccc(C(=O)O)cc1)Cc1ccc(C(=O)O)c(C(=O)O)c1 [Compound 31, N-(4-carboxybenzyl)-N-carboxymethyl-3,4-dicarboxybenzylamine]
- Ki ([4]; FIG. 5, Table 2): 635 ± 55 µM
- inhibition / binding affinity for spASADH (in words) [1]: comparable affinity to that observed for the p-methylbenzyl derivative (23)
- Ki ([3]; FIG. 5, Table 2): 72 ± 7 µM

Compound: NC(=O)c1ccc(CN(CC(=O)O)Cc2ccc(C(=O)O)c(C(=O)O)c2)cc1 [Compound 32, N-(4-carboxamidebenzyl)-N-carboxymethyl-3,4-dicarboxybenzylamine]
- Ki ([4]; FIG. 5, Table 2): 649 ± 25 µM
- loss of affinity ([1]; carboxamide vs p-carboxyl derivative (31)): 3 fold
- Ki ([3]; FIG. 5, Table 2): 229 ± 32 µM

Compound: CC(C)(C)c1ccc(CN(CC(=O)O)Cc2ccc(C(=O)O)c(C(=O)O)c2)cc1 [Compound 33, N-(4-t-butylbenzyl)-N-carboxymethyl-3,4-dicarboxybenzylamine]
- Ki ([4]; FIG. 5, Table 2): 648 ± 32 µM
- selectivity for spASADH relative to vcASADH ([1]; Gram-positive spASADH over Gram-negative vcASADH): over 40 fold
- Ki [1, 5]: 16 µM
- inhibition / binding affinity for spASADH (in words) [1]: additional two-fold improvement

Compound: O=C(O)CN(Cc1ccc(C(F)(C(F)(F)F)C(F)(F)F)cc1)Cc1ccc(C(=O)O)c(C(=O)O)c1 [Compound 34, N-(4-(2-perfluoropropyl))-N-carboxymethyl-3,4-dicarboxybenzylamine]
- Ki ([4]; FIG. 5, Table 2): 639 ± 37 µM
- Ki [1]: 9 µM
- inhibition / binding affinity for spASADH (in words) [1]: low micromolar K value

Compound: O=C(O)CCN(Cc1ccc(Br)cc1)Cc1ccc(C(=O)O)c(C(=O)O)c1 [Compound 35, N-(4-bromobenzyl)-N-carboxyethyl-3,4-dicarboxybenzylamine]
- inhibition / binding affinity for spASADH (in words) [1]: substantial affinity loss
- Ki ([3]; FIG. 5, Table 2): 3600 ± 230 µM

Compound: O=C(O)CN(Cc1ccc(C(F)(F)F)cc1)Cc1ccc(C(=O)O)c(C(=O)O)c1 [Compound 36, N-(4-trifluoromethylbenzyl)-N-carboxymethyl-3,4-dicarboxybenzylamine]
- inhibition / binding affinity for spASADH (in words) [1]: substantial affinity loss
- Ki ([3]; FIG. 5, Table 2): 3800 ± 220 µM

Compound: CC(=O)N(CC(=O)O)Cc1ccc(C(=O)O)c(C(=O)O)c1 [Compound 37, N-acetal-N-carboxymethyl-3,4-dicarboxybenzylamine]
- Ki ([4]; FIG. 4, Table 1): 655 ± 51 µM
- Ki ([3]; FIG. 4, Table 1): 276 ± 16 µM

Compound: O=C(O)CN(Cc1ccc(C=Cc2ccccc2)cc1)Cc1ccc(C(=O)O)c(C(=O)O)c1 [Compound 38, N-((4-(2-benzyl)vinyl)benzyl)-N-carboxymethyl-3,4-dicarboxybenzylamine]
- Ki ([4]; FIG. 5, Table 2): 1100 ± 200 µM

Compound: N-(1-naphthyl)-N-carboxymethyl-3,4-dicarboxybenzylamine [Compound 14]
- Ki ([4]; FIG. 4, Table 1): 749 ± 54 µM
- Ki ([3]; FIG. 4, Table 1): 396 ± 42 µM

Compound: N-acetonitrile, N-carboxymethyl-3,4-dicarboxybenzylamine [Compound 12]
- Ki ([4]; FIG. 4, Table 1): 498 ± 27 µM
- Ki ([3]; FIG. 4, Table 1): 220 ± 14 µM

Reference: patent publication US10449168B2 (The University of Toledo, priority 2015, dated 2019)
